In PMC11040665, “Aminothiazolone Inhibitors Disrupt the Protein–RNA Interaction of METTL16 and Modulate the m^6A RNA Modification” (JACS Au, 2024):
“Also recorded” adds a separate entry of the source.

T1: METTL16 MTD–MAT2A-hp1 RNA interaction (Homo sapiens, UniProt Q86W50)
T1 sequence (Q86W50 1-291): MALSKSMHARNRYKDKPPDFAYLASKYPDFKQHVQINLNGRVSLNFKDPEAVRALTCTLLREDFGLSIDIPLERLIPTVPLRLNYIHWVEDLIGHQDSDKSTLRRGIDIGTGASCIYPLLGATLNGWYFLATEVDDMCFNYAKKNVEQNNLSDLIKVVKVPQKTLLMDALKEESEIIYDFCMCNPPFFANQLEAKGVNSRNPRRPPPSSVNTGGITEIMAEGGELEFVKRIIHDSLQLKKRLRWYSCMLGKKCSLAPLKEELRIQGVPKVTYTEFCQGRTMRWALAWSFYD

T2: METTL16–MAT2A-hp1 mRNA interaction (METTL16 MTD 1–291, FAM-labeled MAT2A-hp1 RNA) (Homo sapiens, UniProt Q86W50)
T2 sequence (Q86W50 1-291): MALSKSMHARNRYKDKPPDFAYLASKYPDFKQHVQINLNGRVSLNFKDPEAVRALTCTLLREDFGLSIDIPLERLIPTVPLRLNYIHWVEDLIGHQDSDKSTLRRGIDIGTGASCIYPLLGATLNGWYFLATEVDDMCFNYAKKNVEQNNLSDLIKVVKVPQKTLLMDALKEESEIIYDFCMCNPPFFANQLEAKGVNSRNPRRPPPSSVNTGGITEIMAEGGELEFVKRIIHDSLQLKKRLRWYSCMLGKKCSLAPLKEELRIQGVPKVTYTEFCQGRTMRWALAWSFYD

T3: methyltransferase activity of METTL16 MTD toward MAT2A-hp1 (Homo sapiens, UniProt Q86W50)
T3 construct: METTL16 MTD (1–291) was subcloned to pOPINB plasmid; His tag followed by HRV 3C cleavage site (N, cleaved yes); made in house; host or cells: E. coli Rosetta (DE3)
T3 sequence (Q86W50 1-291): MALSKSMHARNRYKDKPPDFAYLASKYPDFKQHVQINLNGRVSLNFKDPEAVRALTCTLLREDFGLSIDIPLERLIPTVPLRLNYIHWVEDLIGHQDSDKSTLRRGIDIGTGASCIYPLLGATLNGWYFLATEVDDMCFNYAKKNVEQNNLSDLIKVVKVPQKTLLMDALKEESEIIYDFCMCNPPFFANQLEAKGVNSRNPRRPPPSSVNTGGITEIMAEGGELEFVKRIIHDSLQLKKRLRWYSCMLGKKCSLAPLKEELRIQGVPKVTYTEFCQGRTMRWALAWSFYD

T4: METTL16 MTD–U6 snRNA Δ interaction (Homo sapiens, UniProt Q86W50)
T4 construct: METTL16 MTD (1–291) was subcloned to pOPINB plasmid; His tag followed by HRV 3C cleavage site (N, cleaved yes); made in house; host or cells: E. coli Rosetta (DE3)
T4 sequence (Q86W50 1-291): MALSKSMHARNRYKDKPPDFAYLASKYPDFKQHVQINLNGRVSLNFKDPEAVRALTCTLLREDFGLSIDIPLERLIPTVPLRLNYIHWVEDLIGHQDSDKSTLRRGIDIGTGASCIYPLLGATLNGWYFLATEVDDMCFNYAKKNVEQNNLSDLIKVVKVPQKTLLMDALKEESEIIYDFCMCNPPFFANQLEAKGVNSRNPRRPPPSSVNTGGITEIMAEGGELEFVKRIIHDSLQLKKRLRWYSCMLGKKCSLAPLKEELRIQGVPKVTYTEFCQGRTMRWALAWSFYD

T5: METTL16 MTD–GGACU-containing RNA interaction (Homo sapiens, UniProt Q86W50)
T5 sequence (Q86W50 1-291): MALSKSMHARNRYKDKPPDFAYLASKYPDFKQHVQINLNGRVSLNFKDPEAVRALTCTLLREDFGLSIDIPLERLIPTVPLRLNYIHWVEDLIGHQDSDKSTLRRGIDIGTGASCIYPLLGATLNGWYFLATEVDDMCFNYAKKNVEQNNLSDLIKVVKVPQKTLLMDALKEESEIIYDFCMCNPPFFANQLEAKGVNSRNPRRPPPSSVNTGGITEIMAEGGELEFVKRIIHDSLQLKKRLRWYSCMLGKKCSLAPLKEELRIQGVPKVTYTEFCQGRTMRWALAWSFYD

T6: METTL16 (1-291) (Homo sapiens, UniProt Q86W50)
T6 construct: METTL16 MTD (1–291) was subcloned to pOPINB plasmid; His tag followed by HRV 3C cleavage site (N, cleaved yes); made in house; host or cells: E. coli Rosetta (DE3)
T6 sequence (Q86W50 1-291): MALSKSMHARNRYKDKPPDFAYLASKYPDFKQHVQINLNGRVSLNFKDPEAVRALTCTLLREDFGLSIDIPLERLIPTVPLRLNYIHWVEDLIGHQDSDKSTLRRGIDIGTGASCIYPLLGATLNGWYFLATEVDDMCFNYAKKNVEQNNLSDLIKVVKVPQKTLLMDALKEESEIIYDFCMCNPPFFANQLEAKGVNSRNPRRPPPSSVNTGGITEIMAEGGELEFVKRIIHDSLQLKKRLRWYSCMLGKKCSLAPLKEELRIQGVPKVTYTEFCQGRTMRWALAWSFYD

T7: METTL16 (1-291)–FAM-MAT2A-hp1 RNA (Homo sapiens, UniProt Q86W50)
T7 construct: METTL16 MTD (1–291) was subcloned to pOPINB plasmid; His tag followed by HRV 3C cleavage site (N, cleaved yes); made in house; host or cells: E. coli Rosetta (DE3)
T7 sequence (Q86W50 1-291): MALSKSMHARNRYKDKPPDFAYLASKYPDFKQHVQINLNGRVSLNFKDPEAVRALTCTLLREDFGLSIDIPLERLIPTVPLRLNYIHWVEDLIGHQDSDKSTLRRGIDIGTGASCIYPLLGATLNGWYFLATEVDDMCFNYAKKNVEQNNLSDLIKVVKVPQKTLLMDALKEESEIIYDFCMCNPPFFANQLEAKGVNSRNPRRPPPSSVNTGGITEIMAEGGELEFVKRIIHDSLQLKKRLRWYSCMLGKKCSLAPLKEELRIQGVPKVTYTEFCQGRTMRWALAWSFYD

T8: METTL16 MTD (methyltransferase domain) (Homo sapiens, UniProt Q86W50 1-291)
T8 sequence: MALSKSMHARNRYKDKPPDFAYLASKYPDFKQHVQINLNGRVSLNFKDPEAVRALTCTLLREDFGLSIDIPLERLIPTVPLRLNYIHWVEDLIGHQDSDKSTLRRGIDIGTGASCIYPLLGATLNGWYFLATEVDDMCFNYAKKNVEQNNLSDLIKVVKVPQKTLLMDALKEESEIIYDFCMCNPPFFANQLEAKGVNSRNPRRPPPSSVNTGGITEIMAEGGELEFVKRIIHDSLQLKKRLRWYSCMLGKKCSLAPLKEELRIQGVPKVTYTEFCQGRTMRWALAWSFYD


How the values were obtained:
[1] = target: T1, METTL16 MTD–MAT2A-hp1 RNA interaction; assay: Electrophoretic mobility shift assay (EMSA) with FAM-MAT2A-hp1 RNA; conditions: 50 nM METTL16, 5 nM FAM-MAT2A-hp1
Method: METTL16 MTD protein (1–291) was incubated with the indicated compound or DMSO in a buffer containing 20 mM HEPES, pH 7.5, 50 mM NaCl, 0.05% v/v Tween 20, and 0.05 mg/mL BGG at room temperature for 30 min; subsequently, FAM-MAT2A-hp1 RNA probe was added and incubated at room temperature for 10 min, the final of protein and RNA are 50 and 5 nM respectively, and 1% DMSO was used as the control. […] The gel was detected and imaged by Chemi Doc MP (Bio-Rad).

[2] = target: T2, METTL16–MAT2A-hp1 mRNA interaction (METTL16 MTD 1–291, FAM-labeled MAT2A-hp1 RNA); assay: Fluorescence polarization (FP) assay, disruption of METTL16 binding to FAM-MAT2A-hp1 RNA
Method: The binding of METTL16 to the FAM-labeled RNA probe formed a complex that led to a higher FP signal in comparison to that of the unbound RNA probe (Figure 2A). […] The Z-factor of 0.91 indicated the suitability of the assay condition (Figure S2D). […] In both FP assay and EMSA, a final concentration of 50 nM METTL16 and 5 nM FAM-MAT2A-hp was used. The METTL16 MTD (amino acids 1–291) was used in this study unless specifically indicated otherwise.
The FP assay was performed using 384-well black plates (Corning #4514) in a total reaction volume of 20 μL, with the final concentration of protein and RNA being 50 and 5 nM respectively. Compounds were diluted in FP buffer and incubated with protein for 30 min at room temperature, then FAM-MAT2A-hp1 RNA probe was added and the fluorescence polarization was measured using a TECAN Spark plate reader, under the excitation wavelength of 485 nm and the emission wavelength of 535 nm with bandwidth of 20 nm. 1% DMSO was used as the control. The inhibition was calculated with the equation: inhibition = 100%(Control – X)/(Control – Blank); Control: DMSO with protein and FAM-RNA; Blank: DMSO with FAM-RNA; X: compound with protein and FAM-RNA. The IC50 value was further determined using GraphPad Prism 9. […] The polarization was measured under an excitation wavelength of 630 nm and an emission wavelength of 680 nm with a bandwidth of 20 nm.

MDA-MB-231 cells [3] = assay: Colony formation assay; format: cell-based, human; conditions: 7 days, three tested concentrations
Method: MDA-MB-231 cells were collected and seeded with the density of 1000 cells per well into 24-well plates; after being cultured overnight, the medium was exchanged and treated with indicated compounds or DMSO (0.5%) as the control. The medium change and treatment were performed every 3 days. After 7 days, the cell culture medium was discarded, and cells were washed with PBS and fixed with 4% paraformaldehyde solution at room temperature for 15 min; the paraformaldehyde solution was removed, and cells were washed with PBS again to remove the paraformaldehyde. Then cells were stained with 0.1% (w/v) crystal violet. After staining for 15 min, the cells were washed with H2O to remove the extra dye and then photographed.

[4] = target: T3, methyltransferase activity of METTL16 MTD toward MAT2A-hp1; assay: In vitro methylation assay (MTase Glo); format: biochemical; conditions: RNA substrate MAT2A-hp1
Method: Next, we evaluated the inhibition of the METTL16 methylation using the MTase Glo assay kit (Promega) measuring the methyltransferase activity based on the formation of the methylation product S-adenosyl homocysteine, which was converted to ADP by the MTase-Glo reagent to trigger a subsequent luciferase reaction (Figure 5E).
The methyltransferase activity of METTL16 MTD was measured using an MTase Glo kit (Promega V7601) following the manufacturer’s instructions. The reaction was carried out in white 384-well plates (Corning #3824), with a total methyltransferase reaction volume of 8 μL, and the final concentrations of METTL16 MTD, MAT2A-hp1, and SAM were 1, 1, and 10 μM, respectively, and 1% of DMSO was used as a control. […] To use SAM at a different final concentration, the concentration of SAM was adjusted accordingly in a 2× substrate solution.

[5] = target: T4, METTL16 MTD–U6 snRNA Δ interaction; assay: FP assay with Cy5-labeled U6 snRNA Δ; format: binding
[6] = target: T5, METTL16 MTD–GGACU-containing RNA interaction; assay: EMSA with GGACU-containing RNA; conditions: 5 nM RNA, 600 nM METTL16 MTD
Method: METTL16 MTD protein (1–291) was incubated with the indicated compound or DMSO in a buffer containing 20 mM HEPES, pH 7.5, 50 mM NaCl, 0.05% v/v Tween 20, and 0.05 mg/mL BGG at room temperature for 30 min; subsequently, FAM-MAT2A-hp1 RNA probe was added and incubated at room temperature for 10 min, the final of protein and RNA are 50 and 5 nM respectively, and 1% DMSO was used as the control. […] The gel was detected and imaged by Chemi Doc MP (Bio-Rad). […] EMSA for testing compounds with GGAUC-motif containing RNA and METTL16 MTD interaction was performed using the method described above, expecting that the final of METTL16 MTD protein and FAM-labeled-GGACU RNA are 600 nM and 5 nM respectively. EMSA for RNA binding: indicated concentrations of fluorophore-labeled RNA were incubated with indicated concentrations of protein in EMSA buffer for 15 min at room temperature, then loaded to native PAGE gels and imaged with the method described above.

MDA-MB-231 cells [7] = assay: Cell viability, MDA-MB-231; format: cell-based, human
METTL16 (1-291) = target: T6, METTL16 (1-291); assay: Covalent binding evaluation by protein LC–MS; conditions: 30 μM METTL16 (1-291), 100 μM compound, 30 or 150 min
Method: To evaluate whether the aminothiazolones covalently bind to METTL16, we performed the LC–MS analysis after incubating the protein with aminothiazolones for 30 and 150 min, respectively. In the case of covalent binding, we would expect to observe the formation of covalent adducts, which would accrue over time. […] Besides the LC–MS analysis result, an irreversible inhibition counter screening indicated the reversible inhibitory activity of the aminothiazolones (Figure S8A).
Figure S7. Covalent evaluation of METTL16 inhibitors via LC-MS. (A) Deconvoluted mass spectrum of 30 µM METTL16 (1-291) incubated with 1% DMSO for 30 min (left) and 150 min (right). (B), (C), (D) Deconvoluted […]
(right). Expected Mass for METTL16 (1-291), 33455.7 Da. The observed small mass shift of ~50 Da appeared in both the DMSO control and compound-treated samples was probably formed by the solvent used in the LC-MS.
(1 picture or pasted object on this page, not shown here)
For computational docking analysis of aminothiazolones to the RNA binding site of METTL16 (PDB code: 6B91)2 Schrödinger® Maestro 12.3 was used. […]
Chemical states were generated with the ligand preparation module and METTL16 conformation with the protein preparation module. […] The glide dock module was used and the results were evaluated according to interactions between small molecules and METTL16, small molecule orientations, docking scores and solvent exposure patterns. […]
METTL16 MTD protein was diluted in SEC buffer (20mM pH 7.5, 200 mM NaCl, 0.5 mM TCEP,5% v/v glycerol) to a final concentration of 30 µM, and incubated with DMSO or 100 μM compound (final 1% DMSO) at room temperature. After incubation (30 min or 150 min), the samples were analyzed on an Agilent 1260 II Infinity system equipped with an electrospray ion source in positive mode, run through a Desalting cartridge (AdvanceBio Desalting-RP, 2.1 mm, 12.5mm, Agilent) with a gradient of 5-80% HPLC-grade acetonitrile (+ 0.1% TFA) in HPLC-grade water (+ 0.1% TFA) (flowrate: 0.4 mL/min, runtime: 6 min). […]

[8] = target: T7, METTL16 (1-291)–FAM-MAT2A-hp1 RNA; assay: FP assay after incubating SAM with METTL16; format: binding; conditions: SAM incubated with METTL16 before the FP assay
[9] = target: T8, METTL16 MTD (methyltransferase domain); assay: competition FP; vs FAM-MAT2A-hp1; more potent than GGACU-RNA and pre-miR-17-hp bp; 20 mM HEPES pH 7.5, 50 mM NaCl, 0.05% Tween 20, 0.05 mg/mL BGG, room temperature; EMSA 6.6% native PAGE 0.5x TBE at 4 C; conditions: protein: recombinant, tags: N-terminal His tag removed by HRV 3C (His-tagged form also purified)
[10] = target: T8, METTL16 MTD (methyltransferase domain); assay: competition FP; vs FAM-MAT2A-hp1; 20 mM HEPES pH 7.5, 50 mM NaCl, 0.05% Tween 20, 0.05 mg/mL BGG, room temperature; EMSA 6.6% native PAGE 0.5x TBE at 4 C; conditions: protein: recombinant; tags: N-terminal His tag removed by HRV 3C (His-tagged form also purified)

Molecule | IC50 [2] [nM] | inhibition on colony formation, in words (MDA-MB-231 cells [3]) | inhibition of the methyltransferase activity of METTL16 MTD, in words [4] | IC50 [5] [nM] | inhibition of METTL16–GGACU RNA binding in EMSA, in words [6] | other results
COc1ccc(S(=O)(=O)NC2=NC(=O)C(=C3C(=O)Nc4ccc(Cl)cc43)S2)cc1 [Compound 1] | 16300 |  |  |  |  | disruption of METTL16–MAT2A-hp1 RNA binding in EMSA, in words [1]: dose-dependent inhibition
O=C1N=C(NS(=O)(=O)c2ccc(C(=O)O)cc2)SC1=C1C(=O)Nc2ccc(Cl)cc21 [Compound 27] | 2700 | mild inhibitory activity against colony formation | dose-dependently inhibited; also recorded: potent inhibitory activity | 6600 | dose-dependently inhibited | effect on cell viability, in words (MDA-MB-231 cells [7]): mild antiviability effect
CN1C(=O)C(=C2SC(NS(=O)(=O)c3ccc(C(=O)O)cc3)=NC2=O)c2cc([N+](=O)[O-])ccc21 [Compound 46] | 2000 | did not show obvious inhibition on colony formation | dose-dependently inhibited; also recorded: potent inhibitory activity | 2800 | dose-dependently inhibited | covalent adduct formation with METTL16 (LC–MS) (METTL16 (1-291)): no such covalent adduct with a mass shift was observed; IC50 under different SAM concentrations (FP assay), in words [8]: remained
GGGUUGACUGUUGAAUCUCAUGGCAACCC (structured_RNA) [pre-miR-21-hp] |  |  |  |  |  | binding result ([9]; hairpin): binds
GUGCAGGUAGUGAUAUGUGCAUCUACUGCAC (structured_RNA) [pre-miR-17-hp] |  |  |  |  |  | binding result ([9]; hairpin with two bulges): binds
UUCUUCUGUGGACUGUG (ssRNA) [GGACU-RNA (unlabeled)] |  |  |  |  |  | IC50 [10]: 814 nM
